Assay results from article PMC2678953 (Journal of peptide science : an official publication of the …, 2008).

Key:
GIVA cPLA2 = biological target: T1, GIVA cPLA2 (Homo sapiens, UniProt P47712); test: mixed-micelle PLA2 activity assay; type: biochemical
T1 sequence (P47712 1-749): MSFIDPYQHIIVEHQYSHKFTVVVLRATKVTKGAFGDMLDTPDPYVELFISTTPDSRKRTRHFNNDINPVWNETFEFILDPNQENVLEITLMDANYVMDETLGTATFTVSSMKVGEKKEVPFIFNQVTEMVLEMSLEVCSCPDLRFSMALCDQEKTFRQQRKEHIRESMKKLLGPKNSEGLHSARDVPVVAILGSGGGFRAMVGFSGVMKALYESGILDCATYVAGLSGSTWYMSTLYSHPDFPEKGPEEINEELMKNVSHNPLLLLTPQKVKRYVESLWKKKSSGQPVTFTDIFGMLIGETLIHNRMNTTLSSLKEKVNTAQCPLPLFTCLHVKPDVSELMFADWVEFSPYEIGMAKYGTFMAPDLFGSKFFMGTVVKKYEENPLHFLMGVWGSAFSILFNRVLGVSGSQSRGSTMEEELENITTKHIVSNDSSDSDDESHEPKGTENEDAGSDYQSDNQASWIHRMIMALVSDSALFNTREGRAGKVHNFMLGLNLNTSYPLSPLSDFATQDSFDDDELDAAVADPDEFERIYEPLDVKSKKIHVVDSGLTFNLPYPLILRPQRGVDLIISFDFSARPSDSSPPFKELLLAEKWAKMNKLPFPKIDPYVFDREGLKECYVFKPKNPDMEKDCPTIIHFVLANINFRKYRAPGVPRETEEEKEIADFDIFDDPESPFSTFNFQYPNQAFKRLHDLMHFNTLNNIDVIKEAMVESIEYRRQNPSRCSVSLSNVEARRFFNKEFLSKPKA

GVIA iPLA2 = biological target: T2, GVIA iPLA2 (Homo sapiens, UniProt O60733); test: in vitro GVIA iPLA2 activity assay, XI; type: biochemical
T2 sequence (O60733 1-806): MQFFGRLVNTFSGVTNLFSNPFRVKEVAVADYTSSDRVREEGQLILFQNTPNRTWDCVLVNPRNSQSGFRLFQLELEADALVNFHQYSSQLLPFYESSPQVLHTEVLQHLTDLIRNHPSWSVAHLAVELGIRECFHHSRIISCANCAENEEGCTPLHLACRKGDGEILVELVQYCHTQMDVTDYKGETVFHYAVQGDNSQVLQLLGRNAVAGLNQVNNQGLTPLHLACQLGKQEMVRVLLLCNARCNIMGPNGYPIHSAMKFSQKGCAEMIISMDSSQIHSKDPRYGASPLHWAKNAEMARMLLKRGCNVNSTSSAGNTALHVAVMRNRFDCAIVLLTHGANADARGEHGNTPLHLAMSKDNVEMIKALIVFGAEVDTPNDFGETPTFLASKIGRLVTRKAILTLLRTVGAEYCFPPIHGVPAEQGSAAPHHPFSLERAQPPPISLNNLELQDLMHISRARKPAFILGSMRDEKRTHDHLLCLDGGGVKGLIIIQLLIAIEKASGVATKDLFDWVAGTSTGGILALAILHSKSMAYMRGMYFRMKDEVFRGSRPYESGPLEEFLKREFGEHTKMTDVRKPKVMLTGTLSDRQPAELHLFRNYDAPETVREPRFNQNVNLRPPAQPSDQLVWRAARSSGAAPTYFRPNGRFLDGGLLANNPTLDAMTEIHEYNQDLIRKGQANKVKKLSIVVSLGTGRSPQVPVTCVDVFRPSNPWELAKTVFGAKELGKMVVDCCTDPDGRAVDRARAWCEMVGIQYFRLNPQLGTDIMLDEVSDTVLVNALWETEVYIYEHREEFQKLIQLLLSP

Compound | GIVA cPLA2 (GIVA cPLA2) | GVIA iPLA2 (GVIA iPLA2)
CCCCCCCCCCCCCCC(=O)C(=O)NCCCC(=O)N(C)S(=O)(=O)c1ccc(C)cc1 [compound 20, N-[4-(N,4-Dimethylphenylsulfonamido)-4-oxobutyl)-2-oxohexadecanamide] | 0.033 ± 0.018 mole fraction (XI(50)) | 
CCCCCCCCCCCCCCC(=O)C(=O)N[C@@H](CCCC)CCCNS(C)(=O)=O [14a, (S)-N-[1-(Methylsulfonamido)octan-4-yl]-2-oxohexadecanamide] | 0.029 ± 0.019 mole fraction (XI(50)) | 0.060 ± 0.037 mole fraction (XI(50))
CCCCCCCCCCCCCCC(=O)C(=O)NCCCNS(=O)(=O)c1ccc(C)cc1 [5a, N-(3-(4-Methylphenylsulfonamido)propyl)-2-oxohexadecanamide] | 0.055 ± 0.006 mole fraction (XI(50)) | 0.076 ± 0.020 mole fraction (XI(50))
CCCCCCCCCCCCCCC(=O)C(=O)N[C@@H](CCCC)CCCNS(=O)(=O)c1ccc(C)cc1 [14b, (S)-N-[1-(4-Methylphenylsulfonamido)octan-4-yl]-2-oxohexadecanamide] | 0.033 ± 0.018 mole fraction (XI(50)) | 
